# Measurements: patent publication US5688913A, “CS-1 peptidomimetics, compositions and methods of using the same” (Cytel Corporation, priority 1995, dated 1997)
# Read-outs that look alike come from different tables or passages of the source. Square brackets hold non-standard residues; d marks the D form. Peptide text beside a SMILES is read from it. * marks the point of attachment. PhAc = O=C(Cc1ccccc1)*
# How the values were obtained:
# BALB/c mice = experiment: Delayed type hypersensitivity in mice (adoptive transfer, oxazolone); format: in vivo, mouse; conditions: 6 mg/kg/day subcutaneously by implanted pump for 24 hours; FIG. 5
# Method: An adoptive transfer delayed-type hypersensitivity murine model has been developed using splenic T cells primed to oxazolone. This model is described in Elices et al., Clin. Exp. Rheum., 11(Suppl. 8):577-580 (1993), whose procedures were followed here.
# Thus, BALB/c mice were shaved on the belly and painted (50 μl on the belly and 5 μl on each paw) with three percent oxazolone in acetone/olive oil (4:1) at days zero and 1. At day 5, the mice were sacrificed, their spleens removed, and splenic T cells were obtained via nylon wool columns.
# Normal saline or saline containing 25×10^6 /animal of the oxazolone-immune T cells were separately injected into naive mice. The mice were then challenged by painting 10 μl of 2 percent oxazolone onto one ear each. All procedures were carried out under sterile conditions and in endotoxing-free buffers.
# Prior to challenge or saline injection, the mice were implanted with pumps that subcutaneously administered normal saline, normal saline containing the peptide N-phenylacetyl-Leu-Asp-Phe-D-Pro-NH2 or normal saline containing a peptide with a scrambled sequence continually at 6 mg/kg/day for a 24-hour time period. The swelling diameter at the site of challenge or saline injection was measured with a microcaliper 24 hours thereafter.
# [1] = Toxicity study at 600 mg/kg/day; format: in vivo
# From the text: The results of this study are shown in the graph of FIG. 5 for the saline and recited inhibitor peptide treatments.
# New Zealand white rabbit = experiment: Rabbit cardiac allograft model; format: in vivo; conditions: 1 mg/kg/day injections, day 7
# Method: New Zealand white rabbit SPF hearts were allografted into the necks of similar rabbits to assay a graft-vs-host immunorejection model and the affect of a contemplated peptide on that immunoinflammatory response. These studies were carried out by Dr. M. Rabinovitch of the Hospital for Sick Children, Toronto, Ontario, Canada.
# Here, two rabbits were injected on day zero with 1 mg/kg/day of the inhibitor peptide N-phenylacetyl-Leu-Asp-Phe-D-Pro-NH2 in aqueous diluent. The two rabbits then each received a grafted heart, with the graft being made in the carotid artery to the aorta of the grafted heart, and the jugular vein to the pulmonary artery of the grafted heart. The rabbits thereafter received daily injections of the same dose of that peptide, and were sacrificed on day 7. Another animal that received normal saline injections in place of the peptide injections, also received a similarly allografted heart, and was similarly sacrificed at day 7.
# The animals' blood vessels were thereafter examined histologically for evidence of arteriopathy, and particularly thickening of the intimal elastic lamina (IEL) layer of the coronary arteries. Thickening of the IEL is caused at least in part by emigration of effector cells bearing the CD2 marker such as T cells and NK cells. Clausell et al., Am. J. Path., 142(6):1772-1786 (1993). […]
# SJL/J mice = experiment: Experimental autoimmune encephalomyelitis in mice; format: in vivo; conditions: 1 mg/mouse intraperitoneally at days 8 and 9; versus scrambled control peptide; FIG. 6
# From the text: Experimental autoimmune encephalomyelitis (EAE) is a demyelinating disease of the central nervous system that can be induced in susceptible strains of mice and rats by immunization with myelin basic protein, proteolipid protein (PLP), or their immunodominant T cell determinants, or by injection of CD4-positive T cell clones specific for those determinants. EAE serves as an animal model of human multiple sclerosis. In both diseases, circulating leukocytes such as T cells and monocytes penetrate the blood/brain barrier and damage myelin, resulting in paralysis.
# EAE was induced in female SJL/J mice (8 to 14 weeks old) by immunization on day zero with 50 μg of a peptide corresponding to positions 139-151 of PLP emulsified in a 1:1 mixture of PBS and complete Freund's adjuvant (CFA). […]
# Mice were observed daily, beginning at day 8 for clinical signs of EAE, and disease was scored on a scale of 0-5 as: 0=no disease; 1=floppy tail; 2=moderate hind limb weakness; 3=paraparesis; 4=paraplegis with moderate forelimb weakness; 5=qualdriplegis or premoribund state. […]
# Summed or averaged scores for clinical signs were plotted vs. time. The area under the resulting curves was calculated between day 8 and day 35 to calculate percentage inhibition of EAE by an inhibitor peptide. The percent inhibition was calculated as follows: […]
# VLA-4 = VLA-4 (Homo sapiens, UniProt P05556+P13612); experiment: cell-based; format: cell-based; design: host or cells: Jurkat (human T lymphoblastic line)
# Sequence of VLA-4 (P13612 34-1032): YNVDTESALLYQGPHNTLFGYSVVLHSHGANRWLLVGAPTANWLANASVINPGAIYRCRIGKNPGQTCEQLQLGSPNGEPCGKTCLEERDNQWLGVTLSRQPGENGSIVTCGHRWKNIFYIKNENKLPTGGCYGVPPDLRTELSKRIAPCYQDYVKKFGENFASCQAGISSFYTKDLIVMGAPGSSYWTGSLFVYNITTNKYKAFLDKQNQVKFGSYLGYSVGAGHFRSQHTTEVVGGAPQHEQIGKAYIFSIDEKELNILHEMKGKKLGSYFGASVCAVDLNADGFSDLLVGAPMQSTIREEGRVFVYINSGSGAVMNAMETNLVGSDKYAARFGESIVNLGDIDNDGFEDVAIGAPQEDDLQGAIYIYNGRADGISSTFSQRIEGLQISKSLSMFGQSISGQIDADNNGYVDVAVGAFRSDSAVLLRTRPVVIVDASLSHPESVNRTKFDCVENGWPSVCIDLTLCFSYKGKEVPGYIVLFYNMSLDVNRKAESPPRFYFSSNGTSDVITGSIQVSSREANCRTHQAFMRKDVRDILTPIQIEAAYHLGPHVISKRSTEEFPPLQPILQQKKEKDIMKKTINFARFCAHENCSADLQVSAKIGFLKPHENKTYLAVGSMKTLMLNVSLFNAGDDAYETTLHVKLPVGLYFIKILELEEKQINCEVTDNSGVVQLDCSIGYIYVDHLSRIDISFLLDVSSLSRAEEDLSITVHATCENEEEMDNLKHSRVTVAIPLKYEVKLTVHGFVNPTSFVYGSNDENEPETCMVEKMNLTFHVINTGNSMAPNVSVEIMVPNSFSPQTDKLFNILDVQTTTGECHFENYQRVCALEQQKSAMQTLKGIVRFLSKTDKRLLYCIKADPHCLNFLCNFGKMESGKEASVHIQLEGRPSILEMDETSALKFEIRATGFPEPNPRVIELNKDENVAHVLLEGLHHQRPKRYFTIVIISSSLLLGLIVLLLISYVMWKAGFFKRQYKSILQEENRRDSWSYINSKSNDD
# Sequence of VLA-4 (P05556 21-798): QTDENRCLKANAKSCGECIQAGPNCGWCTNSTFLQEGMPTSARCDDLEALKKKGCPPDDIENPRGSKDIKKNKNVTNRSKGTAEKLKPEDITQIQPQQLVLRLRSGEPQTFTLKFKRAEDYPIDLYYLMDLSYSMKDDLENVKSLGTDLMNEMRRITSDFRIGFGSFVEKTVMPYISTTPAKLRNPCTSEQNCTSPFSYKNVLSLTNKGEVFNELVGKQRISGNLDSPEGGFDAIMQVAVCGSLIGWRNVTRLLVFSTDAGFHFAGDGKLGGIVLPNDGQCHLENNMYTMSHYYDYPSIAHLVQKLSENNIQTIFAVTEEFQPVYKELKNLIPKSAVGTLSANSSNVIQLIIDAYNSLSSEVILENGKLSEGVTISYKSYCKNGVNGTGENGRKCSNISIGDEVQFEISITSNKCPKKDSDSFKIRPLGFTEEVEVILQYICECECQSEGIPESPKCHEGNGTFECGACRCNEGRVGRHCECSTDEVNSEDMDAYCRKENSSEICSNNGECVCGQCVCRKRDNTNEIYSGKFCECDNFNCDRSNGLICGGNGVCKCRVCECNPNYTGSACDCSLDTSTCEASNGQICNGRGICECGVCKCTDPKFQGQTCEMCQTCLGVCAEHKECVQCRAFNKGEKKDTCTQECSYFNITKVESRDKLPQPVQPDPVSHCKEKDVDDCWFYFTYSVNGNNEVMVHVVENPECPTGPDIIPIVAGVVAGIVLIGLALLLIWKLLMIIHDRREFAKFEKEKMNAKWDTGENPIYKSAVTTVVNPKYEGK
# In short: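 51Cr-labelled Jurkat cells (human T lymphoblastic) were preincubated 30 min at about 22 °C with peptide, then allowed to bind 30 min at 37 °C to wells coated with CS-1 peptide or CS-1-OVA. After washing, bound cells were lysed with SDS and counted. IC50 is the peptide concentration halving binding, normalized to plate controls.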
# [2] = Retention of potency in PBS containing 10 percent serum; conditions: PBS at 7.2-7.4 containing 10 percent mouse or human serum
# Jurkat T cell line = experiment: Jurkat cell binding to frozen human RA synovial sections; format: cell-based; conditions: 10-mer at 500 μg/ml; inhibitor peptide at its IC50 value
# Method: Binding studies were carried out using the Jurkat T cell line and frozen RA synovial sections. […] Stimulated MOLT-4 cells behaved similarly.
SMILES,reduction of inflammation (ear swelling diameter at challenge site) (BALB/c mice),toxicity [1],"percentage of IEL thickening based on total coronary vessel area (lesion severity) (New Zealand white rabbit; 59 vessels of two rabbits, saline 35, basal about 15)","vessels exhibiting IEL thickening (New Zealand white rabbit; 141 vessels of two rabbits, saline about 80, basal about 20)",clinical signs of EAE (SJL/J mice),IC50 (VLA-4),binding inhibition better than the standard 10-mer peptide of SEQ ID NO:3 (VLA-4),"RELATIVE POTENCY (relative peptide inhibition of VLA-4 binding CS-1) (VLA-4; normalized IC50 relative to standard peptide of SEQ ID NO:3 (=1), about one-tenth or less of the standard is assigned zero)",loss of potency after 24 hours [2],inhibition of Jurkat cell adhesion to RA synovial sections (Jurkat T cell line),RELATIVE POTENCY (relative peptide inhibition of VLA-4 binding CS-1) (VLA-4)
"CC(C)C[C@H](NC(=O)Cc1ccccc1)C(=O)N[C@@H](CC(=O)O)C(=O)N[C@@H](Cc1ccccc1)C(=O)N1CCC[C@@H]1C(N)=O [X L D F p phenylacetyl amide, N-phenylacetyl-Leu-Asp-Phe-D-Pro-NH2] (PhAc-LDF[dP]-NH2)",reduced this type of CS-1/VLA-4-mediated immunoinflammation,no toxicity,about 18%,about 30%,marked improvement in clinical signs,~500 nM,about 312 times,313,no loss of potency,–,–
"CC[C@H](C)[C@H](NC(=O)[C@H](CCC(=O)O)NC(=O)[C@@H]1CCCN1C(=O)CN)C(=O)N[C@@H](CC(C)C)C(=O)N[C@@H](CC(=O)O)C(=O)N[C@H](C(=O)N1CCC[C@H]1C(=O)N[C@@H](CO)C(=O)N[C@H](C(=O)O)[C@@H](C)O)C(C)C [G P E I L D V P S T free amine free acid, GPEILDVPST, reference compound] (H-GPEILDVPST-OH)",–,–,–,–,–,–,–,–,–,could be inhibited,1
